Reference: patent US12161632B2, “Compositions and methods of treating cardiac fibrosis with ifetroban” (Cumberland Pharmaceuticals Inc., priority 2014, dated 2024)
“Also recorded” adds a separate entry of the source.

Legend:
[1] = test system: right ventricle under load stress (pulmonary banding); test: Pulmonary banding load stress model: hemodynamics, heart fibrosis and macrophage infiltration (Example IV); format: in vivo; details: banded mice, 25 mg/kg/day in drinking water, 2 weeks
Protocol: FVB/N mice or mice with a GFP macrophage-specific lineage tracing marker (LysM-Cre) underwent pulmonary banding to directly increase load stress (or sham surgery for controls), and starting the following day received either vehicle or the thromboxane receptor antagonist Ifetroban sodium in their drinking water (25 mg/kg/day). After 2 weeks, noninvasive hemodynamics were obtained by transthoracic echocardiography and invasive hemodynamics were obtained by pressure-volume catheterization of the right heart prior to sacrifice. Hearts were assessed for fibrosis and macrophage infiltration. RNA from right ventricles were isolated and used for unbiased discovery of altered gene expression using Affymetrix Mouse Gene 2.0 arrays performed on four groups (banded or sham). LysM-Cre mouse hearts were flash-frozen whole, cross-sectioned, and assessed by microscopy for fibrosis and macrophage infiltration. Differences between groups were assessed by ANOVA and t-tests. Correlations were assessed by Spearman correlation.

[2] = test system: pulmonary artery banding (PAB) mouse model of pulmonary hypertension; test: Pulmonary artery banding (PAB) model: cardiovascular phenotyping and histology (Example V); format: in vivo, mice; details: 14 days
Protocol: Experimental Methods: In this pulmonary artery banding (PAB) animal model, we used wildtype or Rosa26-rtTA2 mice on a normal diet. Mice were anesthetized and subject to either PAB (20 mice) or sham surgery (10 mice) at 4-6 months of age. Following the procedure, the mice were given either ifetroban water at 30 mg/kg/day or normal drinking water, and after 14 days of treatment we performed cardiovascular phenotyping followed by terminal sacrifice, histology and gene expression arrays.
Echocardiograms to assess cardiac output were obtained the day prior to catheterization and sacrifice. Our standard cardiovascular phenotyping continued with systemic pressure measurement by tail vein cuff, and intrajugular heart catheterization with measurement of right ventricular systolic pressure (RVSP) for peak pressure, diastolic pressure, diastolic time constant, arterial elastance, ejection fraction, and stroke volume.
(§1) Following sacrifice, right ventricular hypertrophy was assessed in each animal as a percentage of heart weight. A random fraction of the right hearts were fixed in formalin for histology and examined for indices of fibrosis; other hearts were snap frozen for gene expression analysis via RNA microarray. Right hearts and lungs were collected for analysis of protein expression and gene expression array. Left lungs were fixed and stained. Platelet deposition was examined in small pulmonary artery vessels. The remaining organs were harvested and frozen in liquid nitrogen for potential gene expression analysis.

[3] = test system: RV gene expression; test: RV RNA expression arrays in PAB/sham mice (Example V); format: in vivo; details: 30 mg/kg/day, 14 days
Protocol: as §1
As part of this study, RNA extracted and expression analysis was performed using Mouse Genone 2.0 Affymetrix expression arrays. (FIG. 4C). The Array design was 2×2×2: Sham/Banded×Vehicle/Ifetroban×M/F. In total, there were 8 arrays; each array was a pool of RV from 3 mice. Only mice with an RVSP>30 were used for the banded groups. Banding itself altered 199 genes (ABS (Diff in averages)—Sum of standard deviations)>0.4 comparing vehicle banded to sham, and expression of 49 of those genes was enhanced by ifetroban (difference >0.4) and expression of 29 of those genes was attenuated by ifetroban (difference >0.4). […] Res., 2011 Jul. […] 15; 45(4):511-8.

[4] = test system: pulmonary artery banded wild-type mice; test: Pulmonary artery banding, two or six weeks of treatment: histology and echocardiography (Example VI); format: in vivo; details: PAB mice, 30 mg/kg/day, 6 weeks
Protocol: Wild-type mice underwent pulmonary artery banding followed by two weeks or six weeks of treatment with ifetroban (30 mg/kg/day via the drinking water) vs. control (plain drinking water). The pulmonary artery band mimics pulmonary hypertension and right heart failure.

[5] = test system: pulmonary artery banding (PAB) model of right ventricular pressure overload; test: PAB model of right ventricular pressure overload: hemodynamics, echocardiography, histology (Example VII); format: in vivo; details: PAB mice; for RV fibrosis / fibrotic area (Masson's trichrome): ifetroban 25 mg/kg/day in drinking water; for cardiomyocyte diameter / cellular hypertrophy: ifetroban 25 mg/kg/day
Protocol: Both male and female age-matched C57Bl/6 or FVB/NJ mice, obtained by in-house breeding, were used for pulmonary artery banding. LysM-GFP mice were obtained by cross-breeding LysM-Cre×mTomato/GFP reporter mice B6.129P2-Lyz2tm1(cre)Ifo/J (a gift from Tim Blackwell)×Gt(ROSA)26Sortm4(ACTB-tdTomato, -EGFP)Luo (JAX stock #007676). The day following surgery, mice were given either 25 mg/kg/day IFETROBAN (Cumberland Pharmaceuticals Inc., Nashville, TN) in drinking water or normal drinking water (vehicle) for 2 weeks or 6 weeks prior to hemodynamic evaluation. Mice were weighed and water was changed once a week.
An RVSP of 30 mmHg was used to define PAH, and only samples from mice at or above this threshold were used for analysis of PAB groups. […] Two weeks after PAB, fibrosis in the RV of untreated mice has increased from <5% to […] (blue stain) in histologic sections of frozen RV stained with Masson's trichrome.
In the previous experiments, there was an increase in RV mass but not yet any change in cardiac output or other functional parameters, apart from E/A wave ratio, following PAB. To determine whether the decrease in fibrosis seen with TP receptor antagonism leads to increased preservation of cardiac function, the period following PAB-induced pressure overload was extended to 6 weeks and dosing with ifetroban was continued to 6 weeks, as well. […] This was associated with a decreased ejection fraction and decreased fractional shortening, signs of cardiac failure. All of these were prevented in PAB mice that received ifetroban, despite similar RVSP. Mice underwent sham surgery or PAB and echocardiography and pressure-loop catheterization performed after 6 weeks. End diastolic and systolic volume of the left ventricle were measured using the average of values calculated using both spherical and cylindrical models. Also obtained from echocardiography were the left ventricular stroke volume and ejection fraction, as well as percent fractional shortening.

[6] = test system: α and ß isoforms of the TP receptor; details: cited from earlier work

In the case of CCCCCNC(=O)c1coc([C@H]2[C@@H](Cc3ccccc3CCC(=O)O)[C@@H]3CC[C@H]2O3)n1 [ifetroban, [1S-(1α,2α,3α,4α)]-2-[[3-[4-[(Pentylamino)carbonyl]-2-oxazolyl]-7-oxabicyclo[2.2.1]hept-2-yl]methyl]-benzenepropanoic acid], the “fibrosis (heart)” value [1] is reported as “reduction in fibrosis”, the “hemodynamic markers of right heart function under load stress” value [1] is reported as “preserved right heart function under load stress” and the “recruitment of inflammatory cells” value [1] is reported as “reduction in recruitment of inflammatory cells”. For the same compound, the “fibrosis in banded right ventricles” value ([2]; 30 mg/kg/day) was “decreases fibrosis in banded right ventricles”, the “right ventricular systolic pressure (RVSP)” value ([2]; PAB mice, 30 mg/kg/day in water) was “did not have an effect” and the “ratio of tricuspid E to A wave” value ([2]; banded mice, 30 mg/kg/day, p<0.05 unpaired t test) was “significantly increased”. The “fibrosis in cross-section of the right ventricle (trichrome-stained, 20×)” value ([2]; sham surgery and banded, 30 mg/kg/day) was “reduced fibrosis in the right ventricle for both the sham surgery and the banded right ventricle”, the “number of the 199 banding-altered genes whose expression was attenuated (difference >0.4)” value ([3]; banded RV pools) was 29 genes and the “number of the 199 banding-altered genes whose expression was enhanced (difference >0.4)” value ([3]; banded RV pools) was 49 genes. For the same compound, the “expression of FBX032” value ([3]; banded RV) was “reduces the expression of FBX032”, the “expression of Nmrk2, Meox1, Nkd2, and Pkhd1” value ([3]; banded RV) was “enhances the expression of other genes” and the “expression of PDGF” value ([3]; banded RV) was “reduces the expression of PDGF”. For the same compound, the “expression of genes involved with inhibition of TGF-Beta, Asporin and Ltbp2” value ([3]; banded RV) was “enhanced the expression”, the “expression of genes related to collagen and cell-cell adhesion, particularly thrombospondin-4 (Thbs4)” value ([3]; banded RV) was “enhances the expression” and the “expression of pro-fibrotic and inflammatory genes” value ([3]; banded mice) was “decreases expression”. For the same compound, the “expression of pro-muscularization genes” value ([3]; banded mice) was “increases expression”, the “cardiomyocyte diameter in the right ventricle” value [4] was “protected against increases in cardiomyocyte diameter” and the “echocardiography, left ventricular cardiac function (end diastolic/systolic volume, stroke volume, ejection fraction, fractional shortening)” value [4] was “cardiac function values similar to the animals that underwent sham surgery; also recorded: echo values similar to sham surgery animals”. The right ventricular fibrosis [4] was “reduced right ventricular fibrosis”, the “RV mass (ratio of right ventricular weight to left ventricle+septum weight)” value ([5]; 25 mg/kg/day, 2 weeks) was “similarly increased in vehicle- and ifetroban-treated PAB groups; also recorded: not blocked” and the “tricuspid E/A wave ratio (echocardiography)” value ([5]; 25 mg/kg/day, 2 weeks, p<0.05 by ANOVA) was “increased; also recorded: improved”. For the same compound, the “RV mass (ratio of right ventricular weight to left ventricle+septum weight)” value ([5]; 25 mg/kg/day, 2 weeks, listed as Ifetroban) was “allowing increased RV mass”, the “signs of cardiac failure (left ventricular dilation, increased stroke volume, decreased ejection fraction and fractional shortening)” value ([5]; 25 mg/kg/day, 6 weeks) was “more functional adaptation and decreased indications of cardiac failure; also recorded: prevented” and the “RV fibrosis / fibrotic area (Masson's trichrome)” value (“RV fibrosis / fibrotic area” below) ([5]; 2 weeks) was “almost completely abolished”. The “RV fibrosis / fibrotic area” value ([5]; 2 weeks, listed as Ifetroban) was “near normalization of fibrotic area”, the “RV fibrosis / fibrotic area” value ([5]; 2 weeks, listed as ifetrobn) was “antifibrotic effect” and the “cardiomyocyte diameter / cellular hypertrophy” value ([5]; 2 weeks) was “blocked”. For the same compound, the “cardiomyocyte diameter / cellular hypertrophy” value ([5]; 2 weeks, listed as Ifetroban) was “prevented cellular hypertrophy”, the “protection against pressure overload” value ([5]; ifetroban, two weeks following PAB) was “protected against pressure overload” and the “blockade of TPα and TPβ receptor isoforms” value [6] was “effectively blocked”.
